These molecules were tested on P. falciparum 3D7 growth, pLDH absorbance (assay: blood-stage malaria parasite growth potency – strain 3D7, dose response (AID 2305)).

Row | SMILES | IC50 [nM]
1 | NCc1ccc(CNCc2cccc(-c3cccc(-c4nc5ccc(F)cc5[nH]4)c3)c2)cc1 | 310
2 | COc1cc2nc(Nc3ccc(Oc4ccccc4)cc3)nc(Nc3ccc(Oc4ccccc4)cc3)c2cc1OC | 930
3 | Nc1ncc(OC2CCCCC2)c(N)n1 | 1070
4 | Fc1ccc(Nc2ccnc3cc(-c4cccc(CN5CCCCC5)c4)ccc23)c(Cl)c1 | 30
5 | COc1cccc(-c2nn(C)c3sc(C(=O)Nc4cccnc4)cc23)c1 | 950
6 | CN1CCC(NCc2ccc(-c3ccc(S(=O)(=O)NCc4ccccc4)cc3)cc2)CC1 | 830
7 | N#Cc1cccc(C(=O)N2CCOC(CCN3CCC(c4ccccc4)CC3)(c3ccc(Cl)c(Cl)c3)C2)c1 (stereo not given) | 1040
8 | CN1CCN(c2nsc3ccc(-c4ccc(OCCN5CCCC5)cc4)cc23)CC1 | 830
9 | O=c1cc(NCCCNCc2cccc(I)c2)[nH]c2ccccc12 | 1020
10 | COc1cccc(C(O)CNc2ccnc(Nc3ccc(Cl)cc3)n2)c1 (stereo not given) | 610
11 | COc1ccc(CN2CCC(N3CCc4cc(NC(=O)c5cc(C)on5)ccc43)C2)cc1Cl (stereo not given) | 940
12 | Cc1cc(=O)c(-c2ccc(Oc3ccc(OC(F)(F)F)cc3)cc2)c(C)[nH]1 | 360
13 | CCNc1cc(C(=O)N[C@@H](Cc2ccccc2)[C@H](O)CNCc2cc(OC)cc(OC)c2)cc(N2CCCS2(=O)=O)c1 | 40
14 | O=S(=O)(c1cc(Cl)c(Cl)cc1Cl)N1CCCCC(c2ccc(C(F)(F)F)cc2)=N1 | 200
15 | O=C(/C=C/c1ccc(Cl)c(Cl)c1)N1CCC(CN2CCC(Cc3cc4ccccc4[nH]3)CC2)CC1 | 630
16 | COc1ccc2nccc([C@@H](O)CN3CCC(NCc4cc5sccc5nc4C(F)(F)F)CC3)c2c1 | 910
17 | N#CCCN1CCN(Cc2cccc(-c3ccc(-c4nc5ccc(F)cc5[nH]4)cc3)c2)CC1 | 600
18 | O=C(NCCc1ccccc1F)c1cc(Br)cc(N2CCN(c3ccncc3)CC2)c1 | 760
19 | COc1ccc(Cc2c(Cl)nc3nc(N)nc(N)c3c2C)c(OC)c1OC | 720
20 | COc1ccc2nccc([C@@H](O)CN3CCC(NCc4cc5cccc(OCc6ccccc6)c5[nH]4)CC3)c2c1 | 900
21 | COc1cc2nc(N3CCC(C(N)=O)CC3)nc(NCc3ccccc3)c2cc1OC | 890
22 | COc1cc2nc(NCC3CCN(c4nc(N)c5cc(OC)c(OC)cc5n4)CC3)nc(N)c2cc1OC | 780
23 | c1ccc(CN2CCN(c3cc(-c4cncc(-c5ccccc5)c4)nc(-c4ccccc4)n3)CC2)cc1 | 1040
24 | CC(=O)Nc1cccc(C(=O)Nc2ccc(-c3ccc(-c4nc5c(C)cccc5[nH]4)s3)cc2)c1 | 1740

Row | SMILES | IC50 [nM]
25 | O=C(Nc1ccc(Cl)c(Cl)c1)C1CCC(=O)N1[C@@H](Cc1ccccc1)C(=O)NCCc1ccc(Cl)cc1 (stereo not given in full) | 1100
26 | CCOC(=O)c1ccc(NC(=O)Nc2cccc(-c3cccc(-c4nc5ccccc5[nH]4)c3)c2)cc1 | 70
27 | Cc1[nH]c2ccc(O)cc2c1C1CCN(CC2CCN(C(=O)/C=C/c3ccc(Cl)c(Cl)c3)CC2)CC1 | 1000
28 | COc1cc(CCCOc2c(N)nc(N)nc2N)cc(OC)c1OC | 1220
29 | COc1ccc2nccc([C@@H](O)CN3CCC(NCc4cc5ccccc5s4)CC3)c2c1 | 350
30 | C[C@H](CNc1ccnc(Nc2ccc3[nH]c(=O)[nH]c3c2)n1)c1ccccc1 | 1310
31 | CN(C)CCN(C)Cc1ccc(-c2ccc(NC(=O)c3cccc(C#N)c3)cc2)cc1 | 1270
32 | O=C(/C=C/c1ccc(Cl)c(Cl)c1)NCCCCCN1CCC(NC(=O)c2ccc(F)c(F)c2)CC1 | 790
33 | N#Cc1ccc(N(CCCO)Cc2ccccc2C(F)(F)F)cc1C(F)(F)F | 980
34 | CN1CCN(c2ccc(-c3cc(-c4cc(F)c(F)c(F)c4)cnc3N)cc2)CC1 | 1010
35 | Cc1cc(N2CCCC2)nc(Nc2ccc(NC(=O)c3ccccc3F)cc2)n1 | 920
36 | CCn1c2c(c(=N)c3ccccc31)CCC2 | 500
37 | Cc1ccc(O)c(CN2CCCC(COC(c3ccc(F)cc3)c3ccc(F)cc3)C2)c1 (stereo not given) | 710
38 | CC[C@H](C)CNC(=O)c1cncc(-c2ccc(CNCC3CNCCCO3)cc2)c1 (stereo not given in full) | 1020
39 | Cc1cc(N[C@@H](Cc2ccccc2)C(=O)NCc2cccs2)nc(NCCc2cccnc2)n1 | 1010
40 | CC(C)CCN=C(N)c1ccc(OCCCCCOc2ccc(C(N)=NCCC(C)C)cc2)cc1 | 530
41 | COc1cc(NC(=O)N2CCOC(CCN3CCC(c4ccccc4)CC3)(c3ccc(Cl)c(Cl)c3)C2)cc(OC)c1 (stereo not given) | 290
42 | O=C(CCNc1ccnc(NCCc2ccc(F)cc2)n1)Nc1ccccc1 | 830
43 | Cc1cccc2[nH]c(-c3ccc(-c4ccc(CN5CCN(CC6CCCN(C)C6)CC5)cc4)s3)nc12 (stereo not given) | 140
44 | CC(C)(C)c1ccc2nc(-c3ccc(C(=O)NCCCc4ccccc4)cc3)[nH]c2c1 | 800
45 | O=C(/C=C/c1ccc(Cl)c(Cl)c1)NC1CCC(CN2CCC(Cc3cc4ccccc4[nH]3)CC2)CC1 (stereo not given) | 510
46 | Cc1nc2ccc3ccc(CN(C)c4ccc(C(=O)N[C@@H](CCC(=O)O)C(=O)O)cc4)cc3c2c(=O)[nH]1 | 880
47 | Cc1[nH]c2c(NCc3ccc(F)cc3)nccc2c1C | 1360
48 | O=C(NOCc1ccccc1)c1cc(Cl)ccc1O | 1100

Row | SMILES | IC50 [nM]
49 | NC(=NCCCCCCN=C(N)/N=C(\N)c1ccc(Cl)cc1)/N=C(\N)c1ccc(Cl)cc1 | 210
50 | Cc1cc(N2CCCC2)nc(Nc2ccc(NC(=O)c3ccco3)cc2)n1 | 840
51 | COc1ccc(CCNCCCCCCNCCc2ccc(-c3ccccc3)cc2)cc1OC | 960
52 | COC(=O)[C@@H](NC(=O)[C@@H](Nc1ccc(C#N)c2ccccc12)C(C)(C)C)c1ccc(O)cc1 | 780
53 | O=C(Nc1ccc(CCNCc2ccccc2)cc1)Nc1ccc(OC(F)(F)F)cc1 | 580
54 | COc1ccc(C(=O)C2CCN(CCCCNC(=O)c3ccc(NC(=O)c4ccc(Cl)cc4)cc3)CC2)c(OC)c1 | 770
55 | N#Cc1ccc(N(CCOc2ccc(Cl)cc2)Cc2ccccc2C(F)(F)F)cc1C(F)(F)F | 660
56 | FC(F)(F)COc1c(CNCCCCCCNCc2ccc3ccccc3c2OCC(F)(F)F)ccc2ccccc12 | 760
57 | O=C(CCN1C(=O)c2ccccc2C1=O)N1CCN(CC=Cc2ccccc2)CC1 | 540
58 | O=C(NCc1ccccc1)c1ccc(C(=O)NCC2CNCCO2)cc1 (stereo not given) | 1140
59 | Cc1ccccc1C1CCN(C2CCC(NC(=O)/C=C/c3ccc(F)c(F)c3)CC2)CC1 (stereo not given) | 950
60 | O=C(/C=C/c1ccc(Cl)c(Cl)c1)NC1CCC(N2CCC(c3c[nH]c4ccc(O)cc34)CC2)CC1 (stereo not given) | 920
61 | CC1CC(NCCCNc2cc(=O)c3ccccc3[nH]2)c2cc(Cl)c(Cl)c(Cl)c21 (stereo not given) | 720
62 | Cc1nc2ccccc2c(=O)n1NCc1ccc(Cl)c(Cl)c1 | 150
63 | CS(=O)(=O)Nc1cccc(-c2cnc3[nH]cc(-c4ccc(C(=O)O)c(F)c4)c3c2)c1 | 830
64 | O=C1C(c2ccccc2)=C(Nc2cccc([N+](=O)[O-])c2)c2ccccc21 | 890
65 | O=C(Nc1ccc(C(F)(F)F)cc1)c1cc(Br)cnc1NCCCn1ccnc1 | 970
66 | CCNc1nc(OCC(F)(F)F)nc(N(c2ccccc2)c2ccccc2)n1 | 470
67 | CCCCCCn1c(Sc2ccc(C#N)c([N+](=O)[O-])c2)nnc1-c1cc(OC)cc(OC)c1 | 770
68 | Cc1c(S(=O)(=O)Nc2ccc3nccc(N4C[C@@H](C)N[C@@H](C)C4)c3c2)sc2ccc(Cl)cc12 | 1020
69 | COC(=O)c1ccc(Nc2nccc(Nc3ccc(Oc4ccccc4)cc3)n2)cc1 | 1020
70 | NC1=NC(c2ccccc2)(c2ccccc2)C(=O)N1Cc1ccc(-c2ccncc2)cc1 | 770

Reference: PubChem BioAssay AID2305 (GlaxoSmithKline (GSK), 2010)
